{"source": "patent US11814444B2", "about": "“Cyclic polypeptides for PCSK9 inhibition” (Ra Pharmaceuticals, Inc., priority 2018, dated 2023)", "format_in_all_cases": "binding", "key": {"PCSK9 [1]": {"biological_target": "T1, PCSK9 (Homo sapiens, UniProt Q8NBP7)", "T1 sequence (Q8NBP7 153-692)": "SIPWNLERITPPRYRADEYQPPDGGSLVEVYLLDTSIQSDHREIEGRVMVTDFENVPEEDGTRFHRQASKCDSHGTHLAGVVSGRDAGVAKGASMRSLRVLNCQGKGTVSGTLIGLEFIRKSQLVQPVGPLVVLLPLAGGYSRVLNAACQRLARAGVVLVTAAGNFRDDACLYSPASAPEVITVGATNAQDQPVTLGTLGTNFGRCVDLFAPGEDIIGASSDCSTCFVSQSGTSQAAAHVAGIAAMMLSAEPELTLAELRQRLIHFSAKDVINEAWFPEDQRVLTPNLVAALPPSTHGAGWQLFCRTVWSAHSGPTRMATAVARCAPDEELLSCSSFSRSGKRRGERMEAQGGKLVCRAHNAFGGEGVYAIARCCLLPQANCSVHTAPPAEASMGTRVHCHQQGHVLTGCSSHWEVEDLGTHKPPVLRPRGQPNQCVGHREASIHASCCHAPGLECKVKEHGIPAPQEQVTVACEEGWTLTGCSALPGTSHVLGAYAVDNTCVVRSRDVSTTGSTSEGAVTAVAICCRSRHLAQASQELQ", "test": "PCSK9 Alexa FRET Standard assay (displacement of AlexaFluor647 tagged cyclic peptide Reagent A)", "settings": "0.5 nM PCSK9, 20 nM AF cyclic peptide Reagent A", "summary_of_the_method": "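TR-FRET displacement: 0.5 nM biotinylated PCSK9 with 1.25 nM Strep-Eu and 20 nM AlexaFluor-tagged cyclic peptide (final) in 50 mM HEPES pH 7.4, 0.15 M NaCl, 5 mM CaCl2, 0.01% BSA, 0.01% P20, ≥2 h at room temperature. IC50 from sigmoidal fit, converted to Ki via peptide KD; falling Eu counts flagged false positives.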"}, "PCSK9 [2]": {"biological_target": "T1, PCSK9", "test": "PCSK9 Alexa FRET Plus assay (displacement of AlexaFluor647 tagged cyclic peptide Reagent B)", "settings": "0.5 nM PCSK9, 960 nM AF cyclic peptide Reagent B", "method": "A solution containing 1 nM biotinylated PCSK9+2.5 nM Lance Streptavidin Europium (Strep-Eu) was made in 50 mM HEPES pH 7.4, 0.15 M NaCl, 5 mM CaCl2), 0.01% BSA, and 0.01% Surfactant P20. A separate solution containing 1920 nM of the AlexaFluor tagged cyclic peptide was made in the same buffer system. An Echo was used to transfer 0.075 ul of compound plus 0.675 ul of DMSO to each well of an assay plate followed by the addition of 15 ul of PCSK9+Stept-Eu and 15 ul of AF peptide. The final assay volume was 30.750 ul containing 0.5 nM PCSK9, 1.25 nM Strep-Eu, and 960 nM AF cyclic peptide. The reaction was incubated at room temperature for at least two hours prior to fluorescence measurements using an Envision Multilabel Reader. IC50 values were determined by fitting data to a sigmoidal dose-response curve using nonlinear regression. Ki was then calculated from the IC50 and the KD of AF cyclic peptide. Counts (B-counts) of the europium-labeled PCSK9 were followed to observe if compounds were adversely affecting PCSK9. A fall off of the B-counts likely indicated a false positive of inhibition. Data from this procedure was reported as “P=‘numerical value’ (nanomolar)”"}, "[3]": {"biological_target": "human PCSK9 / human LDLR EGFa domain interaction (Homo sapiens, UniProt Q8NBP7)", "sequence (Q8NBP7 153-692)": "as above", "sequence (Q8NBP7 31-152 partner limits assumed)": "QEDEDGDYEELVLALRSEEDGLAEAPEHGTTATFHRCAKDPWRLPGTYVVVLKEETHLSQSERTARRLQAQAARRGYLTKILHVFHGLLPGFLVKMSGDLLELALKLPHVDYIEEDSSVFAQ", "test": "TR-FRET assay of inhibition of the PCSK9-LDLR protein-protein interaction", "settings": "20 nM avitag-biotinylated human PCSK9, 20 nM his-tagged human LDLR EGFa domain, 2 hours, room temperature", "summary_of_the_method": "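20 nM biotin-avitag PCSK9 + 20 nM His-LDLR EGFa; 5 nM Ulight-SA / 5 nM Eu-anti-His; 2 h RT; HEPES 50 mM, NaCl 150 mM, CaCl2 5 mM, 0.01% BSA, 0.01% P20. Half-maximal inhibition, 4-parameter fit.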"}}, "note": "Numbered stars: 1 amine (or outer) side, 2 acyl side, 3 side chain; on linkers, the order of the positions; unused ones are H or OH. Bridge positions count the residues as written; N and C are the ends. Square brackets hold non-standard residues; d marks the D form. Peptide text beside a SMILES is read from it. Trp(7-aza) = N[C@@H](Cc1c[nH]c2ncccc12)C(=O)O; X1 = C[C@@](N[*:1])(C(=O)[*:2])c1ccccc1; mXylylene = c1cc(C[*:1])cc(C[*:2])c1; Tle = CC(C)(C)[C@H](N)C(=O)O; αMeV = CC(C)[C@](C)(N)C(=O)O; Thp = NC1(C(=O)O)CCOCC1", "data": [{"smiles": "CC(=O)N[C@H]1CSCc2cccc(c2)CSC[C@H](C(N)=O)NC(=O)[C@H]([C@@H](C)O)NC(=O)[C@](C)(C(C)C)NC(=O)[C@H](Cc2ccc(O)cc2)NC(=O)[C@H](C)NC(=O)C2(CCOCC2)NC(=O)[C@H](Cc2c[nH]c3ncccc23)NC(=O)[C@H]([C@@H](C)O)NC(=O)[C@@H]2CCCN2C(=O)[C@H](Cc2ccc(O)cc2)NC(=O)[C@H](C(C)(C)C)NC1=O", "note": "[Compound 187] (Ac-C[Tle]YPT[Trp(7-aza)][Thp]AY[αMeV]T[dC]-NH2; linker 1-12 via mXylylene)", "values": [{"measurement": "IC50", "setting": "PCSK9 [1]", "value": "1 to 100", "unit": "nM"}, {"measurement": "IC50", "setting": "PCSK9 [2]", "value": "1 to 100", "unit": "nM"}, {"measurement": "IC50", "setting": "[3]", "value": "0.001 to 0.1", "unit": "µM"}]}, {"smiles": "CC(=O)N[C@H]1CSCc2cccc(c2)CSC[C@H](C(N)=O)NC(=O)[C@H]([C@@H](C)O)NC(=O)[C@](C)(C(C)C)NC(=O)[C@H](Cc2ccc(O)cc2)NC(=O)[C@H](C)NC(=O)[C@](C)(c2ccccc2)NC(=O)[C@H](Cc2c[nH]c3ncccc23)NC(=O)[C@H]([C@@H](C)O)NC(=O)[C@@H]2CCCN2C(=O)[C@H](Cc2ccc(O)cc2)NC(=O)[C@H](C(C)(C)C)NC1=O", "note": "[Compound 190] (Ac-C[Tle]YPT[Trp(7-aza)][X1]AY[αMeV]T[dC]-NH2; linker 1-12 via mXylylene)", "values": [{"measurement": "IC50", "setting": "PCSK9 [1]", "value": "1000 to 21000", "unit": "nM"}, {"measurement": "IC50", "setting": "PCSK9 [2]", "value": "250 to 2000", "unit": "nM"}, {"measurement": "IC50", "setting": "[3]", "value": "21 to 50", "unit": "µM"}]}]}
